Values after ≈ are worked out from the molar mass of the structure shown. Where two headings read alike, the source gives them in different places.
Tests used:
[1] = solubility in water at room temperature; type: physicochemical; conditions: for Sol^y in water: room temperature
Text: For these compounds the following table gives comparison water and solvent solubilities at room temperature.

[2] = solubility in DMSO at room temperature; type: physicochemical; conditions: for Sol^y in DMSO / Sol^y Ratio: room temperature; for Sol^y Ratio: solubility in solvent (DMSO):solubility in water
Text: For these compounds the following table gives comparison water and solvent solubilities at room temperature. […]

[3] = background description; cited from earlier work
[4] = background description; cited from earlier work; remark: listed apart in the source
[5] = benzyl alcohol, chloroform, acetone, acetonitrile; cited from earlier work

SMILES | Sol^y in water [1] | Sol^y in DMSO [2] | Sol^y Ratio [2] | lipophilicity (in words) [3] | solubility in water (in words) [4] | solubility in organic solvents (in words) [5] | solubility in water (in words) ([1]; Example 3) | solubility ([2]; DMSO, organic solvent or mixture, room temp, Example 3)
CC[C@@]1(O)C(=O)OCc2c1cc1n(c2=O)Cc2cc3ccccc3nc2-1 [Camptothecin] | insol (insoluble means less than 10 mg/l) | 10 g/L | >10^3 | – | – | – | – | –
CC(=O)O[C@H]1C(=O)[C@@]2(C)[C@H]([C@H](OC(=O)c3ccccc3)[C@]3(O)C[C@H](OC(=O)[C@H](O)[C@@H](NC(=O)c4ccccc4)c4ccccc4)C(C)=C1C3(C)C)[C@]1(OC(C)=O)CO[C@@H]1C[C@@H]2O [Paclitaxel, 5β,20-Epoxy-1,2α,4,7β,10β,13α-hexahydroxytax-11-en-9-one 4,10-diacetate-2-benzoate 13-ester with (2R,3S)—N-benzoyl-3-phenylisoserine] | 0.3 to 30 mg/L | 50 g/L | – | highly lipophilic | insoluble in water | – | – | –
CO[C@H]1C[C@@H]2CC[C@@H](C)[C@@](O)(O2)C(=O)C(=O)N2CCCC[C@H]2C(=O)O[C@H]([C@H](C)C[C@@H]2CC[C@@H](O)[C@H](OC)C2)CC(=O)[C@H](C)/C=C(\C)[C@@H](O)[C@@H](OC)C(=O)[C@H](C)C[C@H](C)/C=C/C=C/C=C/1C [Rapamycin] | 0.69 mg/L | 25 g/L | >4 × 10^4 | – | insoluble in water | freely soluble in benzyl alcohol, chloroform, acetone, and acetonitrile | – | –
CN(Cc1cnc2nc(N)nc(N)c2n1)c1ccc(C(=O)N[C@@H](CCC(=O)O)C(=O)O)cc1 [Methotrexate] | insol (insoluble means less than 10 mg/l) | 200 g/L | >5 × 10^4 | – | – | – | – | –
C[C@@H]1C[C@H]2[C@@H]3CCC4=CC(=O)C=C[C@]4(C)[C@@]3(F)[C@@H](O)C[C@]2(C)[C@@]1(O)C(=O)CO [Dexamethasone] | insol (insoluble means less than 10 mg/l) | 600 g/L | >10^5 | – | – | – | practically insoluble in water | ~60 mg/mL (≈ 153 mM)

Source: patent US8586098B2, “Loading of hydrophobic drugs into hydrophilic polymer delivery systems” (Biocompatibles UK Limited, priority 2006, dated 2013)
